Test results: patent US11124507B2, “1H-pyrrolopyridine compound, N-oxide thereof or salt thereof, agricultural and horticultural insecticide comprising the compound, and method for using the insecticide” (Nihon Nohyaku Co., Ltd., priority 2016, dated 2021)
Counter-ions that a name gives are not always drawn. Like-named read-outs stand apart in the source and are kept apart here.

Columns and labels:
Type in all cases: in vivo
Myzus persicae = assay: Test for control efficacy on Myzus persicae (foliar application, Chinese cabbage); conditions: 144 h, foliar application to potted Chinese cabbage plants, 6 days after application, read-out: control efficacy (control rate), activity level
Source text: Test for control efficacy on Myzus persicae Chinese cabbage plants were planted in plastic pots (diameter: 8 cm, height: 8 cm), Green peach aphids (Myzus persicae) were propagated on the plants, and the number of surviving Green peach aphids in each pot was counted. The condensed heterocyclic compounds represented by the general formula (1) of the present invention or salts thereof were separately dispersed in water and diluted to 500 ppm. The agrochemical dispersions were applied to the foliage of the potted Chinese cabbage plants. After the plants were air-dried, the pots were kept in a greenhouse. At 6 days after the foliar application, the number of surviving Green peach aphids on the Chinese cabbage plant in each pot was counted, the control rate was calculated according to the formula shown below, and the control efficacy was evaluated according to the criteria shown below. Control rate=100−{(T×Ca)/(Ta×C)}×100 [Math. 1] Ta: the number of survivors before the foliar application in a treatment plot T: the number of survivors after the foliar application in a treatment plot Ca: the number of survivors before the foliar application in a non-treatment plot C: the number of survivors after the foliar application in a non-treatment plot Criteria A: the control rate is 100%. B: the control rate is 90 to 99%. C: the control rate is 80 to 89%. D: the control rate is 50 to 79%.

Laodelphax striatellus = assay: Insecticidal test on Laodelphax striatellus (rice seedling dip); conditions: 192 h, read-out: insecticidal efficacy (corrected mortality rate), activity level
Source text: Insecticidal Test on Laodelphax striatellus
The condensed heterocyclic compounds represented by the general formula (1) of the present invention or salts thereof were separately dispersed in water and diluted to 500 ppm. Rice plant seedlings (variety: Nihonbare) were dipped in the agrochemical dispersions for 30 seconds. After air-dried, each seedling was put into a separate glass test tube and inoculated with ten 3rd-instar larvae of Laodelphax striatellus, and then the glass test tubes were capped with cotton plugs. At 8 days after the inoculation, the numbers of surviving larvae and dead larvae were counted, the corrected mortality rate was calculated according to the formula shown below, and the insecticidal efficacy was evaluated according to the criteria shown below. Corrected mortality rate (%)=100×(Survival rate in a non-treatment plot−Survival rate in a treatment plot)/Survival rate in a non-treatment plot [Math. 2] Corrected Mortality Rate A: the corrected mortality rate is 100%.

Plutella xylostella = assay: Insecticidal test on Plutella xylostella (dip of Chinese cabbage seedlings with laid eggs); conditions: 144 h
Protocol: Insecticidal Test on Plutella xylostella
Adults of Plutella xylostella were released onto Chinese cabbage seedlings and allowed to lay eggs thereon. […] After air-dried, the seedlings were kept in a thermostatic chamber at 25° C. […] This test was conducted in triplicate using 10 adults of Plutella xylostella per plot. Corrected mortality rate (%)=100×(Number of hatched larvae in a non-treatment plot−Number of hatched larvae in a treatment plot)/Number of hatched larvae in a non-treatment plot [Math. 3]

[1] = 500 ppm, rice seedlings dipped 30 seconds, ten 3rd-instar larvae, 8 days after inoculation
[2] = 500 ppm, seedlings with laid eggs dipped about 30 seconds, 25° C., 6 days after dip treatment, criteria of Test Example 2, read-out: insecticidal efficacy (corrected mortality rate), activity level
[3] = read-out: insecticidal efficacy (corrected mortality rate), activity level

CCS(=O)(=O)c1cc2cc(Cl)ccc2nc1-c1[nH]c2cc(C(F)(F)F)cnc2c1F [Compound 1-3, 2-(6-chloro-3-ethylsulfonyl-quinolin-2-yl)-3-fluoro-6-trifluoromethyl-1H-pyrrolo[3,2-b]pyridine]
100%: pest or weed control at 500 ppm (Myzus persicae) | mortality at 500 ppm (Laodelphax striatellus; [1]) | mortality at 500 ppm (Plutella xylostella; [2])

CCOC(=O)Nc1ccc2cc(S(=O)(=O)CC)c(-c3[nH]c4cc(C(F)(F)F)cnc4c3F)nc2c1 [Compound 1-13, 2-(7-ethoxycarbonylamino-3-ethylsulfonyl-quinolin-2-yl)-3-fluoro-6-trifluoromethyl-1H-pyrrolo[3,2-b]pyridine]
100%: pest or weed control at 500 ppm (Myzus persicae) | mortality at 500 ppm (Laodelphax striatellus) | mortality at 500 ppm (Plutella xylostella; [3])

CCS(=O)(=O)c1cc2cc(Cl)ccc2nc1-c1[nH]c2cc(C(F)(F)F)cnc2c1Cl [Compound 1-44, 3-chloro-2-(6-chloro-3-ethylsulfonyl-quinolin-2-yl)-6-trifluoromethyl-1H-pyrrolo[3,2-b]pyridine]
100%: pest or weed control at 500 ppm (Myzus persicae) | mortality at 500 ppm (Laodelphax striatellus; [1]) | mortality at 500 ppm (Plutella xylostella; [2])

CCS(=O)(=O)c1cc2cc(Cl)ccc2nc1-c1c(F)c2ncc(C(F)(F)F)cc2n1C(C)=O [Compound 2-1, 1-acetyl-2-(6-chloro-3-ethylsulfonyl-quinolin-2-yl)-3-fluoro-6-trifluoromethyl-1H-pyrrolo[3,2-b]pyridine]
100%: pest or weed control at 500 ppm (Myzus persicae) | mortality at 500 ppm (Laodelphax striatellus; [1]) | mortality at 500 ppm (Plutella xylostella; [2])

CCSc1cc2cc(Cl)ccc2nc1-c1cc2ncc(C(F)(F)F)cc2n1C(=O)OC(C)(C)C [Compound 2-41, 1-(tert-butoxycarbonyl)-2-(6-chloro-3-ethylthio-quinolin-2-yl)-6-trifluoromethyl-1H-pyrrolo[3,2-b]pyridine]
100%: pest or weed control at 500 ppm (Myzus persicae) | mortality at 500 ppm (Laodelphax striatellus; [1]) | mortality at 500 ppm (Plutella xylostella; [2])

CCS(=O)(=O)c1cc2cc(Cl)ccc2nc1-c1cc2ncc(C(F)(F)F)cc2n1C(=O)OC(C)(C)C [Compound 2-42, 1-(tert-butoxycarbonyl)-2-(6-chloro-3-ethylsulfonyl-quinolin-2-yl)-6-trifluoromethyl-1H-pyrrolo[3,2-b]pyridine]
100%: pest or weed control at 500 ppm (Myzus persicae) | mortality at 500 ppm (Laodelphax striatellus; [1]) | mortality at 500 ppm (Plutella xylostella; [2])

CCOC(=O)Nc1ccc2cc(S(=O)(=O)CC)c(-c3c(F)c4ncc(C(F)(F)F)cc4n3C(=O)OC(C)(C)C)nc2c1 [Compound 2-49, 1-(tert-butoxycarbonyl)-2-(7-ethoxycarbonylamino-3-ethylsulfonyl-quinolin-2-yl)-3-fluoro-6-trifluoromethyl-1H-pyrrolo[3,2-b]pyridine]
100%: pest or weed control at 500 ppm (Myzus persicae) | mortality at 500 ppm (Laodelphax striatellus) | mortality at 500 ppm (Plutella xylostella; [3])

CCS(=O)(=O)c1cc2ccc(Br)cc2nc1-c1c(Cl)c2ncc(C(F)(F)F)cc2n1C(=O)OC(C)(C)C [Compound 2-61, 1-(tert-butoxycarbonyl)-2-(7-bromo-3-ethylsulfonyl-quinolin-2-yl)-3-chloro-6-trifluoromethyl-1H-pyrrolo[3,2-b]pyridine]
100%: pest or weed control at 500 ppm (Myzus persicae) | mortality at 500 ppm (Laodelphax striatellus; [1]) | mortality at 500 ppm (Plutella xylostella; [2])

CCS(=O)(=O)c1cc2ccc(Br)cc2nc1-c1c(Cl)c2ncc(C(F)(F)F)cc2n1COC [Compound 2-65, 1-methoxymethyl-2-(7-bromo-3-ethylsulfonyl-quinolin-2-yl)-3-chloro-6-trifluoromethyl-1H-pyrrolo[3,2-b]pyridine]
100%: pest or weed control at 500 ppm (Myzus persicae) | mortality at 500 ppm (Laodelphax striatellus; [1]) | mortality at 500 ppm (Plutella xylostella; [2])

CCS(=O)(=O)c1cc2ccc(C=O)cc2nc1-c1c(Cl)c2ncc(C(F)(F)F)cc2n1C(=O)OC(C)(C)C [Compound 2-97, 1-(tert-butoxycarbonyl)-2-(7-formyl-3-ethylsulfonyl-quinolin-2-yl)-3-chloro-6-trifluoromethyl-1H-pyrrolo[3,2-b]pyridine]
100%: pest or weed control at 500 ppm (Myzus persicae) | mortality at 500 ppm (Laodelphax striatellus; [1]) | mortality at 500 ppm (Plutella xylostella; [2])

C=Cc1ccc2cc(S(=O)(=O)CC)c(-c3c(Cl)c4ncc(C(F)(F)F)cc4n3C(=O)OC(C)(C)C)nc2c1 [Compound 2-98, 1-(tert-butoxycarbonyl)-2-(7-vinyl-3-ethylsulfonyl-quinolin-2-yl)-3-chloro-6-trifluoromethyl-1H-pyrrolo[3,2-b]pyridine]
100%: pest or weed control at 500 ppm (Myzus persicae) | mortality at 500 ppm (Laodelphax striatellus; [1]) | mortality at 500 ppm (Plutella xylostella; [2])

CCS(=O)(=O)c1cc2cc(Cl)ccc2nc1-c1cc2ncc(C(F)(F)F)cc2[nH]1 [Compound 4-3, 2-(6-chloro-3-ethylsulfonyl-quinolin-2-yl)-6-trifluoromethyl-1H-pyrrolo[3,2-b]pyridine trifluoroacetate]
100%: pest or weed control at 500 ppm (Myzus persicae) | mortality at 500 ppm (Laodelphax striatellus; [1]) | mortality at 500 ppm (Plutella xylostella; [2])
